One series concerns NCI-H460-Luc2 cells. Put plainly: Cell Titer-Glo Luminescent Cell Viability assay, lung cancer cells. Conditions: death of 50% of the cells, half-maximal inhibition at 24 h. Type of series: cell-based, Human. The method, then:
(§1) Human breast cancer cells MDA-MB-231 and colorectal cancer cells HT29, were maintained in DMEM medium (Invitrogen, Cergy Pontoise, France). Human lung cancer cells NCI-H460-Luc2 (Caliper Life Sciences, US) (NSCLC) were maintained in RPMI 1640 (Hyclone Thermo Scientific, MA United States). All media were supplemented with antibiotics (penicillin 50.00 U/ml; streptomycin […]) (Invitrogen, Cergy Pontoise, France) and 10.00% fetal bovine serum (FBS, Biowest, Nouaille, France).
(§2) Cells were seeded in 96-well plates at a density of 5,000 cells/well. After 24.00 hours of seeding, resultant cells' arrays were treated for 24.00-48.00 hours with increasing concentrations of the test compounds (5.00-100.00 μM), in triplicates. Control culture cells were treated with 0.10% DMSO.
(§3) The effect of the test compounds on cell viability was determined using a Cell Titer-Glo Luminescent Cell Viability assay (Promega Corporation, Madison, USA), based on quantification of ATP, which signals the presence of metabolically active cells. Luminescent signal was measured using GLOMAX Luminometer system. The data were presented as proportional viability (%) by comparing the treated group with the untreated cells, the viability of which is assumed to be 100%.
(§4) The effects of investigated compounds at concentrations 5.00-100.00 μM on MDA-MB-231, NCI-H460-Luc2 and HT29 cells were investigated after 24.00 and 48.00 hours exposures. […] Inhibition rates ranged between 50.00 and 98.00% were recorded for all compounds at 100.00 μM concentration. The IC50 is the concentration at which half-maximal inhibition occurs at 24 h. Approximate IC50 value of 100.00 μM was obtained after 24.00 hours.
(§5) Exponentially growing MDA-MB-231, NCI-H460-Luc2 and HT29 cells were treated with vehicle (0.10% DMSO) and the indicated concentrations of investigated compounds. Viable cells were assayed as described in Materials and Methods. Exposure times of 24.00 and 48.00 hours were applied. All experiments were repeated at least three times.
On the technique in general: In ATP-based viability assays light output follows the ATP content of the culture.

The next series deals with HT29 cells. Put plainly: Cell Titer-Glo Luminescent Cell Viability assay, colorectal cancer cells. Conditions: death of 50% of the cells, half-maximal inhibition at 24 h, read-out: IC50 HT29 Colon Cancer. It is filed as cell-based, Human. The procedure: as §1, §2, §3, §4, §5
Another series concerns MDA-MB-231 cells. The series can be described thus: Cell Titer-Glo Luminescent Cell Viability assay, breast cancer cells. It is filed as cell-based, Human. The conditions noted are these: half-maximal inhibition at 24 h. The procedure:
as §1
Cells were seeded in 96-well plates at a density of 5,000 cells/well. […] Control culture cells were treated with 0.10% DMSO.
as §3
Inhibition rates ranged between 50.00 and 98.00% were recorded for all compounds at 100.00 μM concentration. The IC50 is the concentration at which half-maximal inhibition occurs at 24 h. Approximate IC50 value of 100.00 μM was obtained after 24.00 hours.
as §5

The structures appear in SMILES notation. Read-outs that look alike come from different tables or passages of the source.

What is called IC50 is the concentration needed to halve the response being measured. In general, melting point refers to the temperature, or range, at which the solid turns liquid.

Take `Cc1c(N=Nc2ccc([N+](=O)[O-])cc2)c(-c2ccccc2)[nH]c(=O)c1C#N` [Ih, 3-Cyano-4-methyl-6-phenyl-5-(4′-nitronthenylazo)-pyridine-2(1H)-one]: the IC50 with NCI-H460-Luc2 cells is 30.7 µM; with HT29 cells it was 29.9 µM; with MDA-MB-231 cells it was 172 µM.

Consider `Cc1[nH]c(=O)c(C#N)c(C)c1N=Nc1ccc([N+](=O)[O-])cc1` [Compound Ig, 3-Cyano-4,6-dimethyl-5-(4′-nitrorthenylazo)-pyridine-2(1H)-one], for which the IC50 with NCI-H460-Luc2 cells is 29.8 µM; with HT29 cells it was 39 µM; with MDA-MB-231 cells, 72.4 µM.

`Cc1c(N=Nc2ccc(F)cc2)c(-c2ccccc2)[nH]c(=O)c1C#N` [If, 3-Cyano-4-methyl-6-phenyl-5-(4′-fluorophenylazo)-pyridine-2(1H)-one] yielded a melting point of 252 °C. The same compound displayed a half-maximal inhibitory concentration (IC50) with NCI-H460-Luc2 cells (Homo sapiens) of 30 µM. In addition, in the series with HT29 cells (Homo sapiens, HT-29), the 50% inhibitory concentration (IC50) is 93.9 µM. Also, in the series on MDA-MB-231 cells (Homo sapiens, MDA-MB-231), the IC50 was 75.4 µM.

For `Cc1[nH]c(=O)c(C#N)c(C)c1N=Nc1cccc(C(F)(F)F)c1` [Ib, 3-Cyano-4,6-dimethyl-5-(3′-trifluoromethylphenylazo)-pyridine-2(1H)-one], the melting point was found to be 265 °C. In the series with MDA-MB-231 cells (Homo sapiens, MDA-MB-231), this compound gave a half-inhibitory concentration (IC50) of 270 µM.

`Cc1[nH]c(=O)c(C#N)c(C)c1N=Nc1ccc(F)cc1` [Ic, 3-Cyano-4,6-dimethyl-5-(4′-fluorophenylazo)-pyridine-2(1H)-one] showed a melting point of 272 °C. For the same compound, in the series on MDA-MB-231 cells (Homo sapiens, MDA-MB-231), the half-inhibitory concentration (IC50) is 216 µM.

For the compound `Cc1[nH]c(=O)c(C#N)c(C)c1N=Nc1ccccc1F` [Ia, 3-Cyano-4,6-dimethyl-5-(2′-fluorophenylazo)-pyridine-2(1H)-one], the melting point amounted to 257 °C. The compound also displayed an IC50 with MDA-MB-231 cells (Homo sapiens, MDA-MB-231) of 483 µM.

For `Cc1c(N=Nc2cccc(C(F)(F)F)c2)c(-c2ccccc2)[nH]c(=O)c1C#N` [Ie, 3-Cyano-4-methyl-6-phenyl-5-(3′-trifluoromethylphenylazo)-pyridine-2(1H)-one], the melting point stood at 237 °C. For the same compound, 35.9 µM corresponded to half-maximal inhibition in the series on NCI-H460-Luc2 cells (Homo sapiens) (IC50). Besides, the IC50 in the series with HT29 cells (Homo sapiens, HT-29) is 64.5 µM. For the same compound, in the series with MDA-MB-231 cells (Homo sapiens, MDA-MB-231), the IC50 was 90.5 µM.

For `Cc1c(N=Nc2ccccc2F)c(-c2ccccc2)[nH]c(=O)c1C#N` [Id, 3-Cyano-4-methyl-6-phenyl-5-(2′-fluorophenylazo)-pyridine-2(1H)-one], the melting point worked out at 225 °C.

(Values after patent US9051271B2, “Substituted pyridine derivatives useful in the treatment of cancer” (United Arab Emirates University, priority 2012, dated 2015).)
